# In patent US10538555B2, “Macrocyclic inhibitors of the PD-1/PD-L1 and CD80(B7-1)/PD-L1 protein/protein interactions” (BRISTOL-MYERS SQUIBB COMPANY, priority 2014, dated 2020):
# Where a SMILES comes first, the peptide text is derived from it. Bridges are numbered along the chain shown (N, C = ends). [ ]: non-standard residue; d: D form. ξ: configuration not given here. Trp(1-CH2COOH) = N[C@@H](Cc1cn(CC(=O)O)c2ccccc12)C(=O)O; Trp(βS-Me) = C[C@@H](c1c[nH]c2ccccc12)[C@H](N)C(=O)O; Phe(3,4,5-F3) = N[C@@H](Cc1cc(F)c(F)c(F)c1)C(=O)O; d(cisHyp) = O=C(O)[C@H]1C[C@@H](O)CN1; Bta = N[C@@H](Cc1csc2ccccc12)C(=O)O; Hyp = O=C(O)[C@@H]1C[C@@H](O)CN1; NMeF = CN[C@@H](Cc1ccccc1)C(=O)O; NMeE = CN[C@@H](CCC(=O)O)C(=O)O; dHyp = O=C(O)[C@H]1C[C@H](O)CN1; NMeNle = CCCC[C@H](NC)C(=O)O; Pip = O=C(O)[C@@H]1CCCCN1; hSer = N[C@@H](CCO)C(=O)O; NMeA = CN[C@@H](C)C(=O)O; Orn = NCCC[C@H](N)C(=O)O; Dab = NCC[C@H](N)C(=O)O; Dap = NC[C@H](N)C(=O)O; ξPip = O=C(O)C1CCCCN1; ξC = NC(CS)C(=O)O; Sar = CNCC(=O)O
# Molecular target: T1, Human PD-L1/PD-1 (Homo sapiens, UniProt Q9NZQ7)
# T1 construct: TVMV protease cleavage site (C); made in house; host or cells: HEK293T cells
# T1 sequence (Q9NZQ7 with tags, fused parts or gaps): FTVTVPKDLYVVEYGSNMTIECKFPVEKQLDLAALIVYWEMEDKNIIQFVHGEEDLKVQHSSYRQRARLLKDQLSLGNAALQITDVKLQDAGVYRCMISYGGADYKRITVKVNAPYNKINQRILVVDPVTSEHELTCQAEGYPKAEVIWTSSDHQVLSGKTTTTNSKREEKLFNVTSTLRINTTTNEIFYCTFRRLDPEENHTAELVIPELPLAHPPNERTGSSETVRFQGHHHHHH
# Experiment: HTRF Human PD-L1/PD-1 binding assay (PD-1-Ig/PD-L1-His)
# Conditions: PD-L1-His 10 nM, PD-1-Ig 20 nM; class symbol; read-out: HTRF Human PD-L1/PD-1 Binding Assay IC50 Range
# In short: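 HTRF competition using HEK293T-expressed human PD-1(25-167)-Ig at 20 nM and PD-L1(18-239)-His at 10 nM, compound incubated first with PD-L1 for 15 min, then with PD-1 for 15 min. Signal read as 665/620 nm ratio 30 min after adding Eu anti-Ig and APC anti-His antibodies.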
row,IC50 [µM],SMILES
1,0.01 to 0.0999,CCCC[C@H]1C(=O)N[C@@H](CN)C(=O)N[C@H](C(=O)NCC(N)=O)CSCC(=O)N[C@@H](Cc2ccc(O)cc2)C(=O)N(C)[C@@H](C)C(=O)N[C@@H](CC(N)=O)C(=O)N2CCC[C@H]2C(=O)N[C@@H](Cc2c[nH]cn2)C(=O)N[C@@H](CCC(=O)O)C(=O)N2C[C@H](O)C[C@H]2C(=O)N[C@@H](Cc2c[nH]c3ccccc23)C(=O)N[C@@H](CCN)C(=O)N[C@@H](Cc2c[nH]c3ccccc23)C(=O)N(C)[C@@H](CCC(=O)O)C(=O)N1C [Example 5152] ({CH2CO}-Y[NMeA]NPHE[Hyp]W[Dab]W[NMeE][NMeNle][Dap]CG-NH2; thioether N-14)
2,1 to 10,CCCC[C@H]1C(=O)N[C@@H](CC(N)=O)C(=O)N2CCC[C@H]2C(=O)N[C@@H](Cc2c[nH]cn2)C(=O)N[C@@H](CCC(N)=O)C(=O)N2C[C@H](O)C[C@H]2C(=O)N[C@@H]([C@@H](C)c2c[nH]c3ccccc23)C(=O)N[C@@H](CO)C(=O)N[C@@H](Cc2c[nH]c3ccccc23)C(=O)N(C)[C@@H](C)C(=O)N(C)[C@@H](C)C(=O)N[C@@H](CC(C)C)C(=O)N[C@H](C(=O)NCC(N)=O)CSCC(=O)N[C@@H](Cc2ccc(O)cc2)C(=O)N1C [Example 10536] ({CH2CO}-Y[NMeNle]NPHQ[Hyp][Trp(βS-Me)]SW[NMeA][NMeA]LCG-NH2; thioether N-14)
3,0.1 to 0.99,CCCC[C@H]1C(=O)N(C)[C@@H](CCCC)C(=O)N[C@@H](CCC(=O)O)C(=O)N[C@H](C(=O)NCC(N)=O)CSCC(=O)N[C@@H](Cc2ccc(OC)cc2)C(=O)N(C)[C@@H](C)C(=O)N[C@@H](CCN)C(=O)N2CCC[C@H]2C(=O)N[C@@H](CN)C(=O)N[C@@H](CCC(=O)O)C(=O)N2C[C@H](O)C[C@H]2C(=O)N[C@@H](Cc2c[nH]c3ccccc23)C(=O)N[C@@H](CC(=O)O)C(=O)N[C@@H](Cc2c[nH]c3ccccc23)C(=O)N1C [Example 7114] ({CH2CO}-Y(Me)[NMeA][Dab]P[Dap]E[Hyp]WDW[NMeNle][NMeNle]ECG-NH2; thioether N-14)
4,0.001 to 0.0099,CCCC[C@H]1C(=O)N(C)[C@@H](CCCC)C(=O)N[C@@H](CCC(=O)O)C(=O)N[C@H](C(=O)NCC(N)=O)CSCC(=O)N[C@@H](Cc2ccc(O)cc2)C(=O)N(C)[C@@H](C)C(=O)N[C@@H](CC(=O)O)C(=O)N2CCC[C@H]2C(=O)N[C@@H](CO)C(=O)N[C@@H](CCC(=O)O)C(=O)N2C[C@H](O)C[C@H]2C(=O)N[C@@H](Cc2c[nH]c3ccccc23)C(=O)N[C@@H](CCN)C(=O)N[C@@H](Cc2c[nH]c3ccccc23)C(=O)N1C [Example 5252] ({CH2CO}-Y[NMeA]DPSE[Hyp]W[Dab]W[NMeNle][NMeNle]ECG-NH2; thioether N-14)
5,0.01 to 0.0999,"CCCC[C@H]1C(=O)N2C[C@H](O)C[C@@H]2C(=O)N[C@@H](CC(=O)O)C(=O)N[C@@H](C(C)C)C(=O)N(C)[C@@H](Cc2ccccc2)C(=O)N[C@@H](CC(N)=O)C(=O)N2C[C@H](O)C[C@@H]2C(=O)N[C@@H](Cc2c[nH]c3ccccc23)C(=O)N[C@@H](Cc2ccc(O)cc2)C(=O)N[C@@H](CN)C(=O)N[C@H](C(=O)NCC(N)=O)CSCC(=O)N[C@@H](Cc2cc(F)c(F)c(F)c2)C(=O)N(C)[C@@H](Cc2ccccc2)C(=O)N1C [Example 9365] ({CH2CO}-[Phe(3,4,5-F3)][NMeF][NMeNle][d(cisHyp)]DV[NMeF]N[d(cisHyp)]WY[Dap]CG-NH2; thioether N-13)"
6,0.001 to 0.0099,"CCCC[C@H]1C(=O)N2CCC[C@@H]2C(=O)N[C@@H](CC(=O)O)C(=O)N[C@@H](C(C)C)C(=O)N(C)[C@@H](Cc2ccccc2)C(=O)N[C@@H](CC(=O)O)C(=O)N2CCC[C@@H]2C(=O)N[C@@H](Cc2c[nH]c3ccccc23)C(=O)N[C@@H](Cc2ccc(O)cc2)C(=O)N[C@@H](CCO)C(=O)N[C@H](C(=O)NCC(N)=O)CSCC(=O)N[C@@H](Cc2cc(F)c(F)c(F)c2)C(=O)N(C)[C@@H](Cc2ccccc2)C(=O)N1C [Example 10170] ({CH2CO}-[Phe(3,4,5-F3)][NMeF][NMeNle][dP]DV[NMeF]D[dP]WY[hSer]CG-NH2; thioether N-13)"
7,0.01 to 0.0999,CCCC[C@H]1C(=O)N(C)[C@@H](CCCC)C(=O)N[C@@H](CCCN)C(=O)N[C@H](C(=O)NCC(N)=O)CSCC(=O)N[C@@H](Cc2ccc(O)cc2)C(=O)N2CCCCC2C(=O)N[C@@H](CC(=O)O)C(=O)N2CCC[C@H]2C(=O)N[C@@H](CN)C(=O)N[C@@H](CCC(=O)O)C(=O)N2C[C@H](O)C[C@H]2C(=O)N[C@@H](Cc2c[nH]c3ccccc23)C(=O)N[C@@H](CO)C(=O)N[C@@H](Cc2c[nH]c3ccccc23)C(=O)N1C (stereo partly drawn) [Example 1530] ({CH2CO}-Y[ξPip]DP[Dap]E[Hyp]WSW[NMeNle][NMeNle][Orn]CG-NH2; thioether N-14)
8,0.01 to 0.0999,CCCC[C@H]1C(=O)N(C)CC(=O)N[C@@H](CC(=O)O)C(=O)N[C@@H](C)C(=O)N(C)[C@@H](Cc2ccccc2)C(=O)N[C@@H](Cc2ccc(O)cc2)C(=O)N2CCC[C@@H]2C(=O)N[C@@H](Cc2c[nH]c3ccccc23)C(=O)N[C@@H](Cc2ccc(O)cc2)C(=O)N[C@@H](CC(C)C)C(=O)N[C@H](C(=O)NCC(N)=O)CSCC(=O)N[C@@H](Cc2ccccc2)C(=O)N(C)[C@@H](Cc2ccccc2)C(=O)N1C [Example 10080] ({CH2CO}-F[NMeF][NMeNle][Sar]DA[NMeF]Y[dP]WYLCG-NH2; thioether N-13)
9,0.01 to 0.0999,CCCC[C@H]1C(=O)N(C)[C@@H](CCCC)C(=O)N[C@@H](CCCNC(=N)N)C(=O)N[C@H](C(=O)NCC(N)=O)CSCC(=O)N[C@@H](Cc2ccc(O)cc2)C(=O)N(C)[C@@H](C)C(=O)N[C@@H](CC(N)=O)C(=O)N2CCC[C@H]2C(=O)N[C@@H](Cc2cnc[nH]2)C(=O)N[C@@H](CO)C(=O)N2C[C@H](O)C[C@H]2C(=O)N[C@@H](Cc2c[nH]c3ccccc23)C(=O)N[C@@H](CO)C(=O)N[C@@H](Cc2cn(CC(=O)O)c3ccccc23)C(=O)N1C [Example 6202] ({CH2CO}-Y[NMeA]NPHS[Hyp]WS[Trp(1-CH2COOH)][NMeNle][NMeNle]RCG-NH2; thioether N-14)
10,0.001 to 0.0099,CCCC[C@H]1C(=O)N(C)CC(=O)N[C@@H](CC(=O)O)C(=O)N[C@@H]([C@@H](C)O)C(=O)N(C)[C@@H](Cc2ccccc2)C(=O)N[C@@H](Cc2ccc(O)cc2)C(=O)N(C)CC(=O)N[C@@H](Cc2c[nH]c3ccccc23)C(=O)N[C@@H](Cc2ccc(O)cc2)C(=O)N[C@@H](CC(C)C)C(=O)N[C@H](C(=O)NCC(N)=O)CSCC(=O)N[C@@H](Cc2ccccc2)C(=O)N(C)[C@@H](Cc2ccccc2)C(=O)N1C [Example 3225] ({CH2CO}-F[NMeF][NMeNle][Sar]DT[NMeF]Y[Sar]WYLCG-NH2; thioether N-13)
11,0.01 to 0.0999,CCCC[C@H]1C(=O)N(C)[C@@H](CCCC)C(=O)N[C@@H](CCCNC(=N)N)C(=O)NC(C(=O)NCC(N)=O)CSCC(=O)N[C@@H](Cc2ccc(O)cc2)C(=O)N(C)[C@@H](C)C(=O)N[C@@H](CC(N)=O)C(=O)N2CCC[C@H]2C(=O)N[C@@H](CO)C(=O)N[C@@H](CO)C(=O)N2CCC[C@H]2C(=O)N[C@@H](Cc2c[nH]c3ccccc23)C(=O)N[C@@H](CO)C(=O)N[C@@H](Cc2c[nH]c3ccccc23)C(=O)N1C (stereo partly drawn) [Example 10017] ({CH2CO}-Y[NMeA]NPSSPWSW[NMeNle][NMeNle]R[ξC]G-NH2; thioether N-14)
12,0.001 to 0.0099,CCCC[C@H]1C(=O)N(C)[C@@H](CCCC)C(=O)N[C@@H](C)C(=O)N[C@H](C(=O)NCC(N)=O)CSCC(=O)N[C@@H](Cc2ccc(O)cc2)C(=O)N2CCCC[C@H]2C(=O)N[C@@H](CC(=O)O)C(=O)N2CCC[C@H]2C(=O)N[C@@H](Cc2cnc[nH]2)C(=O)N[C@@H](CCC(N)=O)C(=O)N2C[C@H](O)C[C@H]2C(=O)N[C@@H](Cc2c[nH]c3ccccc23)C(=O)N[C@@H](CO)C(=O)N[C@@H](Cc2csc3ccccc23)C(=O)N1C [Example 1508] ({CH2CO}-Y[Pip]DPHQ[Hyp]WS[Bta][NMeNle][NMeNle]ACG-NH2; thioether N-14)
13,0.001 to 0.0099,"CCCC[C@H]1C(=O)N2C[C@H](O)C[C@@H]2C(=O)N[C@@H](CC(=O)O)C(=O)N[C@@H](C(C)C)C(=O)N(C)[C@@H](Cc2ccccc2)C(=O)N[C@@H](CCC(N)=O)C(=O)N2C[C@H](O)C[C@@H]2C(=O)N[C@@H](Cc2c[nH]c3ccccc23)C(=O)N[C@@H](Cc2ccc(O)cc2)C(=O)N[C@@H](CCCN)C(=O)N[C@H](C(=O)NCC(N)=O)CSCC(=O)N[C@@H](Cc2cc(F)c(F)c(F)c2)C(=O)N(C)[C@@H](Cc2ccccc2)C(=O)N1C [Example 9354] ({CH2CO}-[Phe(3,4,5-F3)][NMeF][NMeNle][d(cisHyp)]DV[NMeF]Q[d(cisHyp)]WY[Orn]CG-NH2; thioether N-13)"

# Same assay, conditions: PD-L1-His 10 nM, PD-1-Ig 20 nM; read-out: HTRF Human PD-L1/PD-1 Binding Assay IC50
row,IC50 [µM],SMILES
1,10,CCCC[C@H]1C(=O)N(C)CC(=O)N[C@@H](CC(=O)O)C(=O)N[C@@H](C(C)C)C(=O)N[C@@H](Cc2c[nH]c3ccccc23)C(=O)N[C@@H](Cc2c[nH]c3ccccc23)C(=O)N(C)CC(=O)N[C@@H](Cc2c[nH]c3ccccc23)C(=O)N[C@@H](Cc2ccc(O)cc2)C(=O)N[C@@H](CC(C)C)C(=O)N[C@H](C(=O)NCC(N)=O)CSCC(=O)N[C@@H](Cc2ccccc2)C(=O)N(C)[C@@H](Cc2ccccc2)C(=O)N1C [Example 3234] ({CH2CO}-F[NMeF][NMeNle][Sar]DVWW[Sar]WYLCG-NH2; thioether N-13)
2,0.0057,"CCCC[C@H]1C(=O)N2C[C@@H](O)C[C@@H]2C(=O)N[C@@H](CC(=O)O)C(=O)N[C@@H](C(C)C)C(=O)N(C)[C@@H](Cc2ccccc2)C(=O)N[C@@H](CCC(=O)O)C(=O)N2C[C@H](O)C[C@@H]2C(=O)N[C@@H](Cc2c[nH]c3ccccc23)C(=O)N[C@@H](Cc2ccc(O)cc2)C(=O)N[C@@H](CCCN)C(=O)N[C@H](C(=O)NCC(N)=O)CSCC(=O)N[C@@H](Cc2cc(F)c(F)c(F)c2)C(=O)N(C)[C@@H](Cc2ccccc2)C(=O)N1C [Example 9370] ({CH2CO}-[Phe(3,4,5-F3)][NMeF][NMeNle][dHyp]DV[NMeF]E[d(cisHyp)]WY[Orn]CG-NH2; thioether N-13)"
